From ChEMBL document CHEMBL1149678, “Synthesis and structure-activity relationship of RXR antagonists based on the diazepinylbenzoic acid structure” (Bioorg Med Chem Lett, 2007) come the findings set out here.

In general, IC50 refers to the midpoint of a concentration-inhibition curve.

Some results are limits rather than exact numbers.

The target in test [1] is T1, Retinoic acid receptor RXR-alpha (Homo sapiens, UniProt P19793).
T1 sequence (P19793 whole entry): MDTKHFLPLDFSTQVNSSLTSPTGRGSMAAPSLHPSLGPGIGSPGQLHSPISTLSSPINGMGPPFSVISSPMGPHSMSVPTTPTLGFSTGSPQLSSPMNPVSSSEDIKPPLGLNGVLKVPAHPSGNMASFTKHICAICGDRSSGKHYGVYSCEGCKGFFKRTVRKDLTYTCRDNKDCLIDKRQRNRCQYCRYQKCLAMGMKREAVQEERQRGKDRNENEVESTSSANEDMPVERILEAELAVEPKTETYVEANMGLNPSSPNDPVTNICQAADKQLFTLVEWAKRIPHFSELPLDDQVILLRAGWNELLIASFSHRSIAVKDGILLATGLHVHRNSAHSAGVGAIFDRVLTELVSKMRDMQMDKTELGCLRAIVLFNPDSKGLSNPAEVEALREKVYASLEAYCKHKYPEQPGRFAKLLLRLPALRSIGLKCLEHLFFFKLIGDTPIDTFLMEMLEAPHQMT
Description: Antagonist activity at human RXRalpha expressed in […] cells assessed as inhibition of 9-cis-retinoic acid-induced transactivation. It is filed as functional, cell-based, HEK293.

The target of test [2] is T1, Retinoic acid receptor RXR-alpha. Description: Antagonist activity at human RXRalpha expressed in […] cells assessed as inhibition of LG-100268-induced transactivation. It is filed as functional, cell-based, HEK293.

As for `CCCCNc1ccc2c(c1)N=C(c1ccc(C(=O)O)cc1)c1cc3c(cc1N2C)C(C)(C)CCC3(C)C`, the IC50 in test [1] is greater than 10000 nM; in test [2], greater than 100000 nM.
Regarding `CN1c2ccc(NC(=O)/C=C/c3ccccc3)cc2N=C(c2ccc(C(=O)O)cc2)c2cc3c(cc21)C(C)(C)CCC3(C)C`, the IC50 in test [1] is 1500 nM; in test [2] it was 5200 nM.
Consider `CN1c2ccc(NS(=O)(=O)c3ccc(C(F)(F)F)cc3)cc2N=C(c2ccc(C(=O)O)cc2)c2cc3c(cc21)C(C)(C)CCC3(C)C`, for which the IC50 in test [1] was 1100 nM; in test [2] it was 2200 nM.
Regarding `CN1c2ccc(NS(=O)(=O)c3ccccc3C(F)(F)F)cc2N=C(c2ccc(C(=O)O)cc2)c2cc3c(cc21)C(C)(C)CCC3(C)C`, the IC50 came to 1400 nM in test [1] and 2600 nM in test [2].
With `CCCS(=O)(=O)Nc1ccc2c(c1)N=C(c1ccc(C(=O)O)cc1)c1cc3c(cc1N2CC)C(C)(C)CCC3(C)C`, the results for the IC50 in test [1] and in test [2] were 340 nM and 570 nM, respectively.
With `CN1c2ccc(NC(=O)Cc3ccccc3)cc2N=C(c2ccc(C(=O)O)cc2)c2cc3c(cc21)C(C)(C)CCC3(C)C`, the IC50 in test [1] was determined as 970 nM; in test [2], 2500 nM.
For the molecule `CCC(=O)Nc1ccc2c(c1)N=C(c1ccc(C(=O)O)cc1)c1cc3c(cc1N2C)C(C)(C)CCC3(C)C`, the IC50 in test [1] is 2200 nM; in test [2], 7100 nM.
In the case of `CN1c2ccc(NC(=O)c3ccc(F)cc3)cc2N=C(c2ccc(C(=O)O)cc2)c2cc3c(cc21)C(C)(C)CCC3(C)C`, the IC50 was 1700 nM in test [1] and 1600 nM in test [2].
Regarding `CCCCNC(=O)Nc1ccc2c(c1)N=C(c1ccc(C(=O)O)cc1)c1cc3c(cc1N2C)C(C)(C)CCC3(C)C`, the values for the IC50 in test [1] and in test [2] were 3300 nM and 3400 nM, respectively.
Take `CCCCS(=O)(=O)Nc1ccc2c(c1)N=C(c1ccc(C(=O)O)cc1)c1cc3c(cc1N2CC)C(C)(C)CCC3(C)C`: the IC50 in test [1] was determined as 200 nM; in test [2], 320 nM.
On to `CCN1c2ccc(NC(=O)Cc3ccc(F)cc3)cc2N=C(c2ccc(C(=O)O)cc2)c2cc3c(cc21)C(C)(C)CCC3(C)C`, for which the IC50 amounted to 720 nM in test [1] and 1200 nM in test [2].
The matching figures for `CNC(=O)Nc1ccc2c(c1)N=C(c1ccc(C(=O)O)cc1)c1cc3c(cc1N2C)C(C)(C)CCC3(C)C`: 15000 nM and 14000 nM.
Turning to `CN1c2ccc(NC(=O)c3ccccc3)cc2N=C(c2ccc(C(=O)O)cc2)c2cc3c(cc21)C(C)(C)CCC3(C)C`, the results for the IC50 in test [1] and in test [2] were 900 nM and 2000 nM, respectively.
Regarding `CCCN1c2ccc(NS(=O)(=O)CCC)cc2N=C(c2ccc(C(=O)O)cc2)c2cc3c(cc21)C(C)(C)CCC3(C)C`, the IC50 in test [1] is 550 nM; in test [2], 840 nM.
Consider `CN1c2ccc(NC(=O)NCc3ccccc3)cc2N=C(c2ccc(C(=O)O)cc2)c2cc3c(cc21)C(C)(C)CCC3(C)C`, for which the IC50 in test [1] was 2800 nM; in test [2] it was 2500 nM.
For the molecule `CN1c2ccc(NS(=O)(=O)c3ccc(-c4ccccc4)cc3)cc2N=C(c2ccc(C(=O)O)cc2)c2cc3c(cc21)C(C)(C)CCC3(C)C`, the results for the IC50 in test [1] and in test [2] were 1300 nM and 6200 nM, respectively.
As to `COc1ccc(S(=O)(=O)Nc2ccc3c(c2)N=C(c2ccc(C(=O)O)cc2)c2cc4c(cc2N3C)C(C)(C)CCC4(C)C)cc1`, the IC50 came to 470 nM in test [1] and 2500 nM in test [2].
For the molecule `CCCN1c2ccc(NS(=O)(=O)c3ccc(F)cc3)cc2N=C(c2ccc(C(=O)O)cc2)c2cc3c(cc21)C(C)(C)CCC3(C)C`, the values for the concentration for half-maximal inhibition (IC50) in test [1] and in test [2] were 130 nM and 810 nM, respectively.
Take `CCCN1c2ccc(NC(=O)Cc3ccc(F)cc3)cc2N=C(c2ccc(C(=O)O)cc2)c2cc3c(cc21)C(C)(C)CCC3(C)C`: the results for the IC50 in test [1] and in test [2] were 3100 nM and 3900 nM, respectively.
Turning to `CN1c2ccc(NS(=O)(=O)c3ccccc3)cc2N=C(c2ccc(C(=O)O)cc2)c2cc3c(cc21)C(C)(C)CCC3(C)C`, the IC50 in test [1] was 510 nM; in test [2] it was 1400 nM.
For `CN1c2ccc(NS(=O)(=O)c3ccc(F)cc3)cc2N=C(c2ccc(C(=O)O)cc2)c2cc3c(cc21)C(C)(C)CCC3(C)C` the same measures were 190 nM and 1700 nM.
`Cc1ccc(S(=O)(=O)Nc2ccc3c(c2)N=C(c2ccc(C(=O)O)cc2)c2cc4c(cc2N3C)C(C)(C)CCC4(C)C)cc1`: the IC50 in test [1] came out at 430 nM; in test [2], 2500 nM.
For `CCCCS(=O)(=O)Nc1ccc2c(c1)N=C(c1ccc(C(=O)O)cc1)c1cc3c(cc1N2C)C(C)(C)CCC3(C)C` the same measures were 370 nM and 910 nM.
Take `CN1c2ccc(NS(=O)(=O)Cc3ccccc3)cc2N=C(c2ccc(C(=O)O)cc2)c2cc3c(cc21)C(C)(C)CCC3(C)C`: the IC50 in test [1] stood at 1000 nM; in test [2], 5200 nM.
As for `CCN1c2ccc(NS(=O)(=O)c3ccc(F)cc3)cc2N=C(c2ccc(C(=O)O)cc2)c2cc3c(cc21)C(C)(C)CCC3(C)C`, the IC50 in test [1] was determined as 220 nM; in test [2], 420 nM.
The matching figures for `CN1c2ccc(NC(=O)c3cccc(C(F)(F)F)c3)cc2N=C(c2ccc(C(=O)O)cc2)c2cc3c(cc21)C(C)(C)CCC3(C)C`: 4200 nM and 4100 nM.
`CCNC(=O)Nc1ccc2c(c1)N=C(c1ccc(C(=O)O)cc1)c1cc3c(cc1N2C)C(C)(C)CCC3(C)C`: the figures for the IC50 in test [1] and in test [2] were 7300 nM and 7400 nM, respectively.
With `CCS(=O)(=O)Nc1ccc2c(c1)N=C(c1ccc(C(=O)O)cc1)c1cc3c(cc1N2C)C(C)(C)CCC3(C)C`, the values for the IC50 in test [1] and in test [2] were 840 nM and 4900 nM, respectively.
With `CN1c2ccc(NS(=O)(=O)c3cccc4ccccc34)cc2N=C(c2ccc(C(=O)O)cc2)c2cc3c(cc21)C(C)(C)CCC3(C)C`, the IC50 in test [1] stood at 850 nM; in test [2], 3400 nM.
For `CN1c2ccc(NS(=O)(=O)c3ccccc3F)cc2N=C(c2ccc(C(=O)O)cc2)c2cc3c(cc21)C(C)(C)CCC3(C)C` the same measures were 2300 nM and 4400 nM.
In the case of `CCCC(=O)Nc1ccc2c(c1)N=C(c1ccc(C(=O)O)cc1)c1cc3c(cc1N2C)C(C)(C)CCC3(C)C`, the IC50 in test [1] was found to be 1800 nM; in test [2], 3900 nM.
Turning to `CN1c2ccc(NS(=O)(=O)c3cc(C(F)(F)F)cc(C(F)(F)F)c3)cc2N=C(c2ccc(C(=O)O)cc2)c2cc3c(cc21)C(C)(C)CCC3(C)C`, the IC50 is 1200 nM in test [1] and 4100 nM in test [2].
Turning to `CN1c2ccc(NC(=O)C34CC5CC(CC(C5)C3)C4)cc2N=C(c2ccc(C(=O)O)cc2)c2cc3c(cc21)C(C)(C)CCC3(C)C`, the IC50 amounted to 2900 nM in test [1] and 7200 nM in test [2].
For `CN1c2ccc(NC(=O)Cc3ccc(F)cc3)cc2N=C(c2ccc(C(=O)O)cc2)c2cc3c(cc21)C(C)(C)CCC3(C)C`, the IC50 in test [1] turned out to be 880 nM; in test [2], 1300 nM.
The matching figures for `CCCS(=O)(=O)Nc1ccc2c(c1)N=C(c1ccc(C(=O)O)cc1)c1cc3c(cc1N2C)C(C)(C)CCC3(C)C`: 250 nM and 2100 nM.
The matching figures for `CN1c2ccc(NS(=O)(=O)c3cccc(F)c3)cc2N=C(c2ccc(C(=O)O)cc2)c2cc3c(cc21)C(C)(C)CCC3(C)C`: 1200 nM and 2300 nM.
As to `CNc1ccc2c(c1)N=C(c1ccc(C(=O)O)cc1)c1cc3c(cc1N2C)C(C)(C)CCC3(C)C`, the IC50 in test [1] is greater than 10000 nM; in test [2] it was greater than 100000 nM.
For `CN1c2ccc(NC(=O)C3CCCCC3)cc2N=C(c2ccc(C(=O)O)cc2)c2cc3c(cc21)C(C)(C)CCC3(C)C` the same measures were 1500 nM and 4500 nM.
On to `CCCCS(=O)(=O)Nc1ccc2c(c1)N=C(c1ccc(C(=O)O)cc1)c1cc3c(cc1N2CCC)C(C)(C)CCC3(C)C`, for which the IC50 was 140 nM in test [1] and 850 nM in test [2].
The matching figures for `CCCNC(=O)Nc1ccc2c(c1)N=C(c1ccc(C(=O)O)cc1)c1cc3c(cc1N2C)C(C)(C)CCC3(C)C`: 6200 nM and 5200 nM.
On to `CN1c2ccc(NS(=O)(=O)c3cccc(C(F)(F)F)c3)cc2N=C(c2ccc(C(=O)O)cc2)c2cc3c(cc21)C(C)(C)CCC3(C)C`, for which the IC50 was 480 nM in test [1] and 1500 nM in test [2].
For the molecule `CN1c2ccc(NCc3ccccc3)cc2N=C(c2ccc(C(=O)O)cc2)c2cc3c(cc21)C(C)(C)CCC3(C)C`, the IC50 in test [1] was greater than 10000 nM; in test [2] it was greater than 100000 nM.
Consider `CN1c2ccc(NS(=O)(=O)/C=C/c3ccccc3)cc2N=C(c2ccc(C(=O)O)cc2)c2cc3c(cc21)C(C)(C)CCC3(C)C`, for which the values for the IC50 in test [1] and in test [2] were 400 nM and 2900 nM, respectively.
Take `CC(C)C(=O)Nc1ccc2c(c1)N=C(c1ccc(C(=O)O)cc1)c1cc3c(cc1N2C)C(C)(C)CCC3(C)C`: the IC50 in test [1] amounted to 1900 nM; in test [2], 5600 nM.
`CN1c2ccc(NS(C)(=O)=O)cc2N=C(c2ccc(C(=O)O)cc2)c2cc3c(cc21)C(C)(C)CCC3(C)C`: the IC50 in test [1] turned out to be 2400 nM; in test [2], 4400 nM.
